Values of other authors in US7700798B1, “Erogorgiaene congeners and methods and intermediates useful in the preparation of same” (The Research Foundation of State University of New York, priority 2005, dated 2010).

Settings: literature statement, comparison with the commercially used natural products

In the case of Elisabethadione, the “anti-inflammatory potency compared with the pseudopterosins” value is given as “more potent than the related and commercially used natural products, the pseudopterosins”.
